Laboratory results taken from patent US7169785B2, “Methods and compositions of novel triazine compounds” (Reddy US Therapeutics, Inc., priority 2001, dated 2007).
Read-outs that look alike come from different tables or passages of the source.

Tests used:
[1] = system: IL-6; test: TNF-α-induced IL-6 production determined by IL-6 ELISA in HAEC; assay type: cell-based, human; conditions: for activity at 10 µM / activity at 5 µM: Homo sapiens, 24 h; for Inhibition of TNF-induced IL6 production: class of % of control IL6 production
[2] = system: Human aortic smooth muscle cells; test: Smooth muscle cell proliferation assay (anti-proliferation assay, perlecan); assay type: cell-based; conditions: Homo sapiens, anti-proliferation assay (perlecan)
[3] = system: HAEC; test: Toxicity to endothelial cells (HAEC) when TNF stimulated; assay type: cell-based
Description: (§1) Human aortic endothelial cells (HAEC, Clonetics) were cultured according to manufacturer in growth medium (Clonetics): basal medium containing human epidermal growth factor, hydrocortisone, vascular endothelial growth factor, heparin binding growth factor-B, long R3-insulin-like growth factor-1, ascorbic acid, gentamicin/amphotericin and 5% FBS. These cell were allowed to reach at least 90% confluency before subjected to experimental treatments. Glycated human serum albumin (G-HSA) was from US Biologicals. Tumor necrosis factor α was from R&D Systems.
[…] All treatments, compound-added and controls were carried out in serum free media containing 0.2% albumin. Media from all conditions were collected and used for IL-6 ELISA.

[4] = system: heparanase; test: Induction and measurement of endothelial heparanase protein (TNF-induced heparanase secretion); assay type: cell-based, human; conditions: for inhibition at 5 µM / inhibition at 10 µM: Homo sapiens; for Relative Activity: inhibition of TNF-induced heparanase secretion, scale at 5 uM compound concentration
Description: Experiments were carried out on human microvascular endothelial cells (HMVEC) grown in 48-well plates (˜90% confluency). To induce heparanase activity, culture media was replaced with 200 μl Dulbecco's Modified Eagle's medium (DMEM) complemented with 1% bovine serum albumin (BSA) and with or without stimulants (5 ng/ml TGF-alpha, 1 ng/ml IL 1alpha, 200 ng/ml VEGF or other stimulants, cytokines, or inducers as required). The secreted proteins were analyzed by SDS/PAGE and heparanase protein was detected by immunoblotting using polyclonal anti-human heparanase antibody. The changes of heparanase expression determined by densitometric analysis. The induction and measurement of endothelial heparanase protein reported in the Tables herein were carried out according to this Example.

[5] = system: IL-6; test: AGE (G-HSA)-induced inflammatory response determined by IL-6 ELISA in HAEC; assay type: cell-based, human; conditions: for activity at 10 µM: 24 h, IL6, read-out: % IL6 production compare to AGE stimulation of IL6 (100%); for IC50: IL6, unit inferred, read-out: IC50 (AGE stimulation of IL6)
Method in brief: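 Human aortic endothelial cells grown to ≥90% confluence, then treated with compounds and stimuli in serum-free medium with 0.2% albumin. Secreted IL-6 in collected media measured by sandwich ELISA (2 ug/ml capture, 200 ng/ml biotinylated detection antibody, streptavidin-HRP), read at 450 nm.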

[6] = system: endothelial cells; test: Toxicity to endothelial cells when AGE stimulated; assay type: cell-based, human
Description: as §1, with “Glycated human serum albumin (G-HSA) was from US Biologicals.” left out
All treatments, compound-added and controls were carried out in serum free media containing 0.2% albumin. Media from all conditions were collected and used for IL-6 ELISA.

[7] = Compds tested @ 10 uM, HAEC, IL6, read-out: % IL6 production compare to TNF stimulation of IL6 (100%)
[8] = Homo sapiens, Compds tested @ 10 uM
[9] = endothelial cells, AGE stimulated
[10] = HAEC, @ 5 uM, read-out: % IL6 production compare to TNF stimulation of IL6 (100%)

With CCN(CC)c1ccc(Nc2nc(NCC3CCCN3CC)nc(NC3CCCCCC3)n2)cc1Cl (centres unmarked) [Compound 26, N^2-[3-chloro-4-(diethylamino)phenyl]-N^4-cycloheptyl-N^6-[(1-ethyl-2-pyrrolidinyl)methyl]-1,3,5-triazine-2,4,6-triamine] the activity at 10 µM [1, 7] was 1%, the IC50 ([2]; read-out: Activity (note 1)) was greater than 7 µM and the IC50 ([2]; read-out: Avg IC-50) was 7.73 µM. The cells floating ([3]; TNF-stimulated HAEC, compound @ 10 uM) was greater than 50%.

For CCN1CCCC1CNc1nc(Nc2ccccc2C)nc(NC2CCCCCC2)n1 (centres unmarked) [Compound 35, N^2-cycloheptyl-N^4-[(1-ethyl-2-pyrrolidinyl)methyl]-N^6-(2-methylphenyl)-1,3,5-triazine-2,4,6-triamine], the activity at 10 µM [1, 7] was 34%, the inhibition at 5 µM [4] was 53% and the “Relative Activity” value [4] was “++ (30–40% inhibition)”. For the same compound, the activity at 10 µM [5, 8] was 4%.

In the case of CCN1CCCC1CNc1nc(Nc2ccc(OC)c(F)c2)nc(NC(C)(C)C)n1 (centres unmarked) [Compound 52, N^2-(tert-butyl)-N^4-[(1-ethyl-2-pyrrolidinyl)methyl]-N^6-(3-fluoro-4-methoxyphenyl)-1,3,5-triazine-2,4,6-triamine], the activity at 10 µM [1, 7] is reported as 1%, the inhibition at 10 µM ([4]; @ 10 uM) is reported as 40 to 60% and the “Relative Activity” value [4] is reported as “+ (0–30% inhibition)”. The activity at 10 µM [5, 8] was 35%.

With CCN1CCCC1CNc1nc(Nc2ccc(OC)c(F)c2)nc(N2CCCCCC2)n1 (centres unmarked) [Compound 58, N^2-[(1-ethyl-2-pyrrolidinyl)methyl]-N^4-(3-fluoro-4-methoxyphenyl)-N^6-hexahydro-1H-azepin-1-yl-1,3,5-triazine-2,4-diamine] the activity at 10 µM [1, 7] was 1%, the inhibition at 10 µM ([4]; @ 10 uM) was 40 to 60% and the “Relative Activity” value [4] was “+ (0–30% inhibition)”. It also gave an activity at 10 µM [5, 8] of 30%.

With CCN1CCCC1CNc1nc(Nc2ccc(OC)c(F)c2)nc(N2CCC[C@H]2COC)n1 (some centres unmarked) [Compound 61] the “% IL6 production compare to TNF stimulation of IL6 (100%)” value ([1]; Compds tested @ 10 uM, HAEC, IL6) was 2%, the “Inhibition of TNF-induced IL6 production” value ([1]; HAEC) was “++++ (between 0 and about 25% of IL6 production compared to cells that did not receive compound (or per cent of control IL6 production))” and the “Activity, inhibition of TNF-induced heparanase secretion” value ([4]; @ 10 uM) was 40–60% inhibition @ 10 uM. The “Relative Activity” value [4] was “+ (0–30% inhibition)”, the “% IL6 production compare to AGE stimulation of IL6 (100%)” value ([5]; Compds tested @ 10 uM, IL6) was 38% and the IC50 [5] was 6.47 µM.

For CCNc1nc(Nc2ccc(OC)c(F)c2)nc(NC2CCCCCC2)n1 [Compound 76, N^2-cycloheptyl-N^4-ethyl-N^6-(3-fluoro-4-methoxyphenyl)-1,3,5-triazine-2,4,6-triamine], the activity at 10 µM [1, 7] was 18%, the inhibition at 5 µM [4] was 50% and the “Relative Activity” value [4] was “++ (30–40% inhibition)”.

In the case of COc1ccc(Nc2nc(NC3CCCCCC3)nc(N3CCCC3)n2)cc1F [Compound 82, N^2-cycloheptyl-N^4-(3-fluoro-4-methoxyphenyl)-6-(1-pyrrolidinyl)-1,3,5-triazine-2,4-diamine], the activity at 10 µM [1, 7] is reported as 34%, the inhibition at 5 µM [4] is reported as 73% and the “Relative Activity” value [4] is reported as “+++ (70–100% inhibition)”.

For COc1ccc(Nc2nc(NC3CCCCCC3)nc(N3CCN(C)CC3)n2)cc1F [Compound 87, N^2-cycloheptyl-N^4-(3-fluoro-4-methoxyphenyl)-6-(4-methyl-1-piperazinyl)-1,3,5-triazine-2,4-diamine], the inhibition at 10 µM ([4]; @ 10 uM) was 40 to 60%, the “Relative Activity” value [4] was “+ (0–30% inhibition)” and the activity at 10 µM [5, 8] was 5%.

In the case of COc1ccc(Nc2nc(NC3CCCCCC3)nc(N3CCN(CC(=O)N4CCCC4)CC3)n2)cc1F [Compound 94, N^2-cycloheptyl-N^4-(3-fluoro-4-methoxyphenyl)-6-{4-[2-oxo-(1-pyrrolidinyl)ethyl]-1-piperazinyl}-1,3,5-triazine-2,4-diamine], the activity at 10 µM [1, 7] is reported as 32%, the inhibition at 10 µM ([4]; @ 10 uM) is reported as 40 to 60% and the “Relative Activity” value [4] is reported as “+ (0–30% inhibition)”. It also gave an activity at 10 µM [5, 8] of 10% and an IC50 ([5]; Homo sapiens) of 5.8 µM.

In the case of COc1ccc(Nc2nc(NC(C)C)nc(N(C)C3CCNCC3)n2)cc1Cl [Compound 107, N^2-(3-chloro-4-methoxy-phenyl)-N^4-isopropyl-N^6-methyl-N^6-piperidin-4-yl-1,3,5-triazine-2,4,6-triamine], the melting point is reported as 129 °C, the “Inhibition of TNF-induced IL6 production” value ([1]; HAEC) is reported as “++ (between about 50 and about 75% of control IL6 production)” and the activity at 5 µM ([1]; read-out: % IL6 production compare to TNF stimulation of IL6 (100%), @ 5 uM, HAEC, IL6) is reported as 60%.

In the case of COc1ccc(Nc2nc(NCCCCCO)nc(N(C)C3CCNCC3)n2)cc1Cl [Compound 109, 5-[4-(3-chloro-4-methoxy-phenylamino)-6-(methyl-piperidin-4-yl-amino)-1,3,5-triazin-2-ylamino]-pentan-1-ol], the melting point is reported as 101 °C, the “Inhibition of TNF-induced IL6 production” value ([1]; HAEC) is reported as “+++ (between about 25 and about 50% of control IL6 production)” and the activity at 10 µM ([1]; read-out: % IL6 production compare to TNF stimulation of IL6 (100%), Compds tested @ 10 uM, HAEC, IL6) is reported as 40%.

Compound COc1ccc(Nc2nc(Cl)nc(NCC3CCCCC3)n2)cc1F [Compound 125, 6-Chloro-N-cyclohexylmethyl-N′-(3-fluoro-4-methoxy-phenyl)-[1,3,5]triazine-2,4-diamine] has a melting point of 156 °C, an IC50 ([2]; read-out: Activity (note 1)) greater than 7 µM and an IC50 ([2]; read-out: Avg IC-50) of 10 µM.

For COc1ccc(Nc2nc(NC3CCCCCC3)nc(NC3CCN(Cc4ccccc4)CC3)n2)cc1Cl [Compound 134, N-(1-benzyl-piperidin-4-yl)-N′-(3-chloro-4-methoxy-phenyl)-N″-cycloheptyl-[1,3,5]-2,4,6-triamine], the “Toxic (AGE-treated)” value [6, 9] was “toxic”, the activity at 5 µM [1, 10] was 55% and the “cell death in TNF-stimulated IL6 test” value ([3]; HAEC, @ 10 uM) was “total cell death”.

For COc1ccc(Nc2nc(NC3CCCCCC3)nc(NC3CCNCC3)n2)cc1Cl [Compound 135, N^2-(3-chloro-4-methoxy-phenyl)-N^4-cycloheptyl-N^6-piperidin-4-yl-1,3,5-triazine-2,4,6-triamine], the “Toxic (AGE-treated)” value [6, 9] was “toxic”, the activity at 5 µM [1, 10] was 60% and the IC50 ([2]; read-out: Activity (note 1)) was 3 to 7 µM. For the same compound, the IC50 ([2]; read-out: Avg IC-50) was 5.83 µM and the “cell death in TNF-stimulated IL6 test” value ([3]; HAEC, @ 10 uM) was “total cell death”.

In the case of CN1CCC(N(C)c2nc(Nc3ccc(O)c(Cl)c3)nc(NC3CCCCCC3)n2)CC1 [Compound 138], the “Toxic (AGE-treated)” value [6] is reported as “toxic”, the IC50 ([2]; read-out: Activity (note 1)) is reported as 3 to 7 µM and the IC50 ([2]; read-out: Avg IC-50) is reported as 4.03 µM.

COc1ccc(Nc2nc(NC3CCCCCC3)nc(N(C)C3CCNCC3)n2)cc1Cl [Compound 146, N^2-(3-chloro-4-methoxy-phenyl)-N^4-cycloheptyl-N^6-methyl-N^6-piperidin-4-yl-1,3,5-triazine-2,4,6-triamine] showed a melting point of 114 to 116 °C, an IC50 ([2]; read-out: Activity (note 1)) of less than 3 µM and an IC50 ([2]; read-out: Avg IC-50) of roughly 2.2 µM.

In the case of CCN1CCCC1CNc1nc(Nc2ccc(OC)c(Cl)c2)nc(NC2CN3CCC2CC3)n1 (centres unmarked) [Compound 148], the “Toxic (AGE-treated)” value [6] is reported as “toxic”, the activity at 5 µM ([1]; read-out: % IL6 production compare to TNF stimulation of IL6 (100%), HAEC, @ 5 uM) is reported as 60% and the IC50 ([2]; read-out: Activity (note 1)) is reported as 3 to 7 µM. The IC50 ([2]; read-out: Avg IC-50) was less than 5 µM and the “cell death in TNF-stimulated IL6 test” value ([3]; human, 24 h, 10 uM) was “total cell death”.

For COc1ccc(Nc2nc(NC3CCCCCC3)nc(N(C)C3CCNCC3)n2)cc1F [Compound 159, N^2-Cycloheptyl-N^4-(3-fluoro-4-methoxy-phenyl)-N^6-methyl-N^6piperidin-4-yl-1,3,5-triazine-2,4,6-triamine], the “Toxic (AGE-treated)” value [6] was “toxic”, the IC50 ([2]; read-out: Activity (note 1)) was 3 to 7 µM and the IC50 ([2]; read-out: Avg IC-50) was 5.7 to 6.9 µM. For the same compound, the “cell death in TNF-stimulated IL6 test” value ([3]; human, 24 h, 5 uM) was “total cell death @ 5 and10 uM” and the “cell death in TNF-stimulated IL6 test” value ([3]; human, 24 h, 10 uM) was “total cell death @ 5 and10 uM”.

Compound COc1ccc(Nc2nc(NC3CCCCCC3)nc(OCC3CCCN3)n2)cc1Cl (centres unmarked) [Compound E22, N^2-(3-chloro-4-methoxyphenyl)-N^4-cycloheptyl-6-(2-azolanylmethoxy)-1,3,5-triazine-2,4-diamine] has a melting point of 84 to 86 °C.

With COc1ccc(Nc2nc(NC3CCCCCC3)nc(Oc3ccccc3F)n2)cc1Cl [Compound E28, N^2-(3-chloro-4-methoxyphenyl)-N^4-cycloheptyl-6-(2-fluorophenoxy)-1,3,5-triazine-4,2-diamine] the melting point was 98 to 100 °C.
